Key:
male Arrb2 KO mice = assay: IPGTT in male Arrb2 KO mice; format: in vivo, mouse; set-up: Mean difference in glucose (Arrb2-/- + Veh. vs. Arrb2-/- + GLP-1): unit not given here; conditions: for Mean difference in glucose (Arrb2-/- + Veh. vs. Arrb2-/- + GLP-1): injected 15 min before glucose, n = 13 veh., 10
Excerpt: (§1) We therefore explored the functional relationship between β-arrestin recruitment and GIP-stimulated glucose regulation by conducting pharmacological interventions in a murine genetic global germline β-arrestin 2 (Arrb2) knockout (KO) model.
(§2) Studies were approved by and performed according to the guidelines of the Institutional Animal Care and Use Committee of Duke University. Male Arrb2 KO mice (Arrb2^−/−) ~12–15 weeks of age were generously provided by Drs Howard Rockman and Robert Lefkowitz at Duke University[70]. The mice were kept in standard housing conditions with a temperature of 20–26 °C and a 12-h dark/light cycle to ensure the physiological and psychological wellbeing of the mice. Mice were fed research diets 5053. We restrictedly used male mice because of the potential impact of the sexual dimorphism, that is, the oestrus cycle in female mice on cardiometabolic traits, resulting in unwanted variability and to ensure comparability to existing research predominantly using male mice[71]. The mice were subjected to an IPGTT. […] Data collection and analysis were not randomized or blind to the conditions of the experiments. The statistical analysis was performed in GraphPad Prism.

[1] = system: β cell-specific β-arrestin 2 KO female mice; conditions: cited from earlier work
Excerpt: In contrast, GIP-potentiated insulin secretion relied on β-a ...

WT male mice = assay: IPGTT in WT male mice; format: in vivo, mouse; set-up: Mean difference in glucose (WT + Veh. vs. WT + GLP-1): unit not given here; conditions: for Mean difference in glucose (WT + Veh. vs. WT + GLP-1): injected 15 min before glucose, n = 14 veh., 13
Excerpt: as §1, §2

GIPR = conditions: cited from earlier work
Excerpt: (§3) Development of similar Gs biased analogues for the GIPR has also been proposed. Although it is not possible to genetically instrument the dual agonistic effects, our results and those of others[33] highlight that decreased recruitment of β-arrestins might benefit the GLP-1R system[36],[37] but not for the GIPR regarding its role in glycaemic control. Ye ...

GLP-1R = biological target: T1, GLP-1R (Homo sapiens, UniProt P43220); conditions: cited from earlier work
T1 construct: expressed in transfected cells; host or cells: parental HEK293A cells and β-arrestin 1/2 KO HEK293A cells
T1 sequence (P43220 24-463, species assumed): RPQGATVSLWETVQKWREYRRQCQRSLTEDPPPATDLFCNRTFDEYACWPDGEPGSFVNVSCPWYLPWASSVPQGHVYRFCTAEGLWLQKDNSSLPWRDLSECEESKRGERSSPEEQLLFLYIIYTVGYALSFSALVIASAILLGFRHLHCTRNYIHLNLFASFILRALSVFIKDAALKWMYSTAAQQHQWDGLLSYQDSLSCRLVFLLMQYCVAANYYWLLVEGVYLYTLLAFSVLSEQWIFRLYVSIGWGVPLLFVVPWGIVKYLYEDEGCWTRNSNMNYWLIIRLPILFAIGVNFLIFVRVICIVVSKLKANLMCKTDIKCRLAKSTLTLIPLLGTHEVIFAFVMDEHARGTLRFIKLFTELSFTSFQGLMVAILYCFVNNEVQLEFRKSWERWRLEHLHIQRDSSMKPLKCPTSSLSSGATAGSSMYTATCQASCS
Excerpt: as §3

| Substance | Blood glucose lowering in IPGTT (male Arrb2 KO mice; male Arrb2 KO mice, 15 min before IPGTT) | Mean difference in glucose (Arrb2-/- + Veh. vs. Arrb2-/- + GLP-1) (male Arrb2 KO mice; time 0, P = 0.011) | Mean difference in glucose (Arrb2-/- + Veh. vs. Arrb2-/- + GLP-1) (male Arrb2 KO mice; time 15 minutes, P = 0.008) | Mean difference in glucose (Arrb2-/- + Veh. vs. Arrb2-/- + GLP-1) (male Arrb2 KO mice; time 30 minutes, P = 0.0038) | Mean difference in glucose (Arrb2-/- + Veh. vs. Arrb2-/- + GLP-1) (male Arrb2 KO mice; time 60 minutes, P = 0.216) | Mean difference in glucose (Arrb2-/- + Veh. vs. Arrb2-/- + GLP-1) (male Arrb2 KO mice; time 120 minutes, P = 0.796) | Insulinotropic properties (male Arrb2 KO mice; β-arrestin KO mice) | Acute glycaemic control [1] | Blood glucose lowering in IPGTT (WT male mice; WT male mice, 15 min before IPGTT) | Mean difference in glucose (WT + Veh. vs. WT + GLP-1) (WT male mice; time 0, P = 0.031) | Mean difference in glucose (WT + Veh. vs. WT + GLP-1) (WT male mice; time 15 minutes, P = 0.025) | Mean difference in glucose (WT + Veh. vs. WT + GLP-1) (WT male mice; time 30 minutes, P = 0.094) | Mean difference in glucose (WT + Veh. vs. WT + GLP-1) (WT male mice; time 60 minutes, P = 0.535) | Mean difference in glucose (WT + Veh. vs. WT + GLP-1) (WT male mice; time 120 minutes, P = 0.741) | GIPR activation (GIPR) | cAMP pathway activation at the GLP-1R (GLP-1R) | β-arrestin recruitment to the GLP-1R (GLP-1R) |
| --- | --- | --- | --- | --- | --- | --- | --- | --- | --- | --- | --- | --- | --- | --- | --- | --- | --- |
| glucagon-like peptide-1 [GLP-1] | able to lower blood glucose | 20.9 | 44.9 | 39.3 | 8.48 | 3.39 | maintained its insulinotropic properties | reduced acute GLP-1-mediated glycaemic control | significantly lowered blood glucose levels | 19.9 | 40.3 | 28.3 | 8.13 | -1.82 | – | – | – |
| tirzepatide: GIPR–GLP-1R co-agonist | – | – | – | – | – | – | – | – | – | – | – | – | – | – | activation of GIPR as native GIP | full activation of the cAMP pathway | less recruitment of β-arrestin |

Source: article PMC11272584 (Nature Metabolism, 2024)
